Here are results for five molecules from patent publication US20230014445A1, “ALLOSTERIC CHROMENONE INHIBITORS OF PHOSPHOINOSITIDE 3-KINASE (PI3K) FOR THE TREATMENT OF DISEASE” (Petra Pharma Corporation, priority 2021, published 2023).

SMILES strings stand for the structures.

Test [1] concerns the target T1, human full length PIK3KA H1047R mutant (p110α/p85α complex) (Homo sapiens, UniProt P42336, H1047R).
T1 construct: Recombinant, catalytically active human full length PIK3KA Wild-type and H1047R mutant were purchased; 6xHis (N); purchased EMD Millipore Sigma 14-792M
The experiment in a line: PI3K-Alpha Kinase (PIK3CA) biochemical activity, H1047R mutant (ADP-Glo). The note with it: Soy PI lipid substrate, 20 uM ATP. The method, boiled down:
(§1)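 ADP formation, measured by ADP-Glo luminescence after reaction to about 10% ATP conversion at 27° C., gives 10-point 4-parameter IC50 curves normalized to no-enzyme and DMSO controls. Lipid substrate was PIP2diC8 or Soy PI at 50 uM, with 20 uM ATP. WT or H1047R p110α/p85α complex (1-5 nM) was preincubated 1 h with compound.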

Test [2] has as its target T2, human full length PIK3KA Wild-type (p110α/p85α complex) (Homo sapiens, UniProt P42336).
T2 construct: Recombinant, catalytically active human full length PIK3KA Wild-type and H1047R mutant were purchased; 6xHis (N); purchased EMD Millipore Sigma 14-602M
The test is described as follows: PI3K-Alpha Kinase (PIK3CA) biochemical activity, wild-type (ADP-Glo). The note with it: Soy PI lipid substrate, 20 uM ATP. The method, boiled down: as §1
A general note: ADP-Glo first removes unused ATP, then detects ADP through luciferase.

Test [3] deals with PI3K-α (PIK3CA) in MDA-MB-453 cells (Homo sapiens, UniProt P42336). The experiment in a line: PI3K-Alpha Kinase (PIK3CA) activity in vitro cell based assay (AlphaLisa SureFire). The note with it: 0% FBS, 3 hours treatment, read-out: PI3K-α (PIK3CA) in vitro cell based assay IC50. The method, boiled down:
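Serum-free MDA-MB-453 cells with 1 μg/mL insulin treated 3 h with a 10-point compound series in 0.3% DMSO; lysates analysed by AlphaLisa SureFire. Relative IC50 from 4-parameter fit of % inhibition versus DMSO (max) and 1 μM GDC-0032 (min) controls, duplicates.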
On the technique in general: In Alpha technology, singlet oxygen from a donor bead excites a nearby acceptor bead.

Sequence of PI3K-α (PIK3CA) in MDA-MB-453 cells (P42336 whole entry): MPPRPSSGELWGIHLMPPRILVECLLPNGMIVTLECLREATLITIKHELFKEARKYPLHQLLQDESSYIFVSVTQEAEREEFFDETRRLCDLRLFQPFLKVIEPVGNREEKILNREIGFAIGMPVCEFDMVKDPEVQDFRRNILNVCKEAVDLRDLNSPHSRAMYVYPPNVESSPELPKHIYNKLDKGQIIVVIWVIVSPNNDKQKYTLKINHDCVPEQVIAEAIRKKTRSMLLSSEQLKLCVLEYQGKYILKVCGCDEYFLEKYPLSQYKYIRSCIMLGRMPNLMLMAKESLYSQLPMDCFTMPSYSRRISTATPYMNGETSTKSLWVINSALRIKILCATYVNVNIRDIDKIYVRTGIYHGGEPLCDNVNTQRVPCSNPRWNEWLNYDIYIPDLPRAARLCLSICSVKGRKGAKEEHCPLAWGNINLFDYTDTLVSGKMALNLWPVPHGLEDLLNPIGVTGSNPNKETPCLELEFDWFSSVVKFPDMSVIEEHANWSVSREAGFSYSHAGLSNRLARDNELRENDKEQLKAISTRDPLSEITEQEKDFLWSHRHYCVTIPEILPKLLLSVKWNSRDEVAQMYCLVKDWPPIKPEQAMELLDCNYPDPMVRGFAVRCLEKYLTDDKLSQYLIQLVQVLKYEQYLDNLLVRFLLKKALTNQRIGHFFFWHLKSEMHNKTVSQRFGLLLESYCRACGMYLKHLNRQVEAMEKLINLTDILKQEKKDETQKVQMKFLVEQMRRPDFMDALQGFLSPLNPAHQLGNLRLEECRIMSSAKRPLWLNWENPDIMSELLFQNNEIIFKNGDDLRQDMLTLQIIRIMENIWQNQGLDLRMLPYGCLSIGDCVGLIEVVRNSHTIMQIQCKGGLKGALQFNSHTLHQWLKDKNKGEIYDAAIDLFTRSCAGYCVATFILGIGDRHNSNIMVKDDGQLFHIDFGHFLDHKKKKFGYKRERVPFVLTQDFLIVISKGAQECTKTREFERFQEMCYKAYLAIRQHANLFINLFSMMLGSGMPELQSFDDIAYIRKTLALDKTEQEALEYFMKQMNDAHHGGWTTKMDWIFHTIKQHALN
Sequence of PI3K-α (PIK3CA) in MDA-MB-453 cells (P27986 2-724, further chain): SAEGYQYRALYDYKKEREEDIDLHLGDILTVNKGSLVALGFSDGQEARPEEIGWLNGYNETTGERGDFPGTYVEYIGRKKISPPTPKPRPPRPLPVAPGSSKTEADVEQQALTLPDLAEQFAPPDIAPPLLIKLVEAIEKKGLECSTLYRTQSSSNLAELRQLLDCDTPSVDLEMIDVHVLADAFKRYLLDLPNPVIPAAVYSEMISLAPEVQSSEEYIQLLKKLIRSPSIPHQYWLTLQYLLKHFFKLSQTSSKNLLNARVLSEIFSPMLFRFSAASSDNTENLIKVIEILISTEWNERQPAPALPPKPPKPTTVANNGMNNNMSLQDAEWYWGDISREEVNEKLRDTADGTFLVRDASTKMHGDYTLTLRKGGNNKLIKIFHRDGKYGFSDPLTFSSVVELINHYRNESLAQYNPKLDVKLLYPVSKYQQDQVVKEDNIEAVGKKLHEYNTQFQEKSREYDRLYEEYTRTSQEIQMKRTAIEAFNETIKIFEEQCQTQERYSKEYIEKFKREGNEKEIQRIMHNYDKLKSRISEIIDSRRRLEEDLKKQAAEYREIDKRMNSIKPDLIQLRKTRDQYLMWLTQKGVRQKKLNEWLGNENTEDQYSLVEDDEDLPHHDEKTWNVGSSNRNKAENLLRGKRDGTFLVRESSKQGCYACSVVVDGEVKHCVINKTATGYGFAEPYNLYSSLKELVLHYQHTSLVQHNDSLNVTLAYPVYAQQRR
T1 sequence (P42336 whole entry H1047R): as the sequence (P42336 whole entry) above, with H1047R counted along it
T1 sequence (P27986 whole entry partner): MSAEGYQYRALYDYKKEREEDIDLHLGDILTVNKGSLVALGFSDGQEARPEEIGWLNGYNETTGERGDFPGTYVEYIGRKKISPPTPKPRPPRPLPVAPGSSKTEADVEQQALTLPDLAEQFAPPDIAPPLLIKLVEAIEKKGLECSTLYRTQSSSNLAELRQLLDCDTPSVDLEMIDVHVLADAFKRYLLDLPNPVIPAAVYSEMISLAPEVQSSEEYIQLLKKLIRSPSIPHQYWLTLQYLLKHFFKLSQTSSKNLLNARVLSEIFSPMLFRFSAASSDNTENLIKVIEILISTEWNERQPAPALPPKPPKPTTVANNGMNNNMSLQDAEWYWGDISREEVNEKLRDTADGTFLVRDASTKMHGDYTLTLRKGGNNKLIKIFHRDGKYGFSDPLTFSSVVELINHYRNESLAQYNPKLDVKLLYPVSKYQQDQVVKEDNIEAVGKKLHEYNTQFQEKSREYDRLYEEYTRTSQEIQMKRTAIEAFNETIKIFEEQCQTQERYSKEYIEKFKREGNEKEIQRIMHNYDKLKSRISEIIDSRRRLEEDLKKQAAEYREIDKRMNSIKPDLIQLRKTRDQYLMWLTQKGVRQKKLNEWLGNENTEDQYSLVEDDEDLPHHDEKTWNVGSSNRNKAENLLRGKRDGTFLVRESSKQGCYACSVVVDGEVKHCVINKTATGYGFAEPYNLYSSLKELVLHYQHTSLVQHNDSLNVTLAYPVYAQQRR

As for `Cc1cc(C(C)Nc2ccccc2C(=O)O)c2oc(-c3ccc(F)nc3)cc(=O)c2c1` (single isomer, unassigned; isomer 2) [Example 36, 2-[1-[2-(6-Fluoro-3-pyridyl)-6-methyl-4-oxo-chromen-8-yl]ethylamino]benzoic acid, Isomer 2], the IC50 (in general, the concentration needed to halve the response being measured) was less than 0.5 µM in test [1], 5 to 10 µM in test [2] and less than 0.05 µM in test [3].

`Cc1cc(C(C)Nc2ccccc2C(=O)O)c2oc(-c3cnc(OC(C)C)nc3)cc(=O)c2c1` (single isomer, unassigned; isomer 2) [Example 42, 2-[1-[2-(2-Isopropoxypyrimidin-5-yl)-6-methyl-4-oxo-chromen-8-yl]ethylamino]benzoic acid, Isomer 2]: the IC50 in test [1] is less than 0.5 µM; in test [2] it was 5 to 10 µM; in test [3], 0.05 to 0.1 µM.

Turning to `COc1cccc(-c2nnc(-c3cc(=O)c4cc(C)cc(C(C)Nc5ccccc5C(=O)O)c4o3)o2)c1` (single isomer, unassigned; isomer 2) [Example 84, 2-[1-[2-[5-(3-Methoxyphenyl)-1,3,4-oxadiazol-2-yl]-6-methyl-4-oxo-chromen-8-yl]ethylamino]benzoic acid, Isomer 2], the half-inhibitory concentration (IC50) was less than 0.5 µM in test [1], 1 to 5 µM in test [2] and 0.1 to 0.5 µM in test [3].

Consider `Cc1cc(C(C)Nc2cccc(F)c2C(=O)O)c2oc(-c3ccccn3)cc(=O)c2c1` (single isomer, unassigned; isomer 2) [Example 111, 2-Fluoro-6-[1-[6-methyl-4-oxo-2-(2-pyridyl)chromen-8-yl]ethylamino]benzoic acid, Isomer 2], for which the IC50 in test [1] is 1 to 5 µM; in test [2] it was 1 to 5 µM; in test [3], greater than 0.5 µM.

`Cc1cc(C(C)Nc2cccc(F)c2C(=O)O)c2oc(-c3cnn(-c4ccc(C#N)cc4)c3)cc(=O)c2c1` (single isomer, unassigned; isomer 2) [Example 113, 2-[1-2-[1-(4-Cyanophenyl)pyrazol-4-yl]-6-methyl-4-oxo-chromen-8-yl]ethylamino]-6-fluoro-benzoic acid, Isomer 2]: the figures for the IC50 in test [1], in test [2] and in test [3] were less than 0.5 µM, 1 to 5 µM and 0.1 to 0.5 µM, respectively.
